Values of other authors, collected in patent US7098367B2, “Process for the preparation of alkylene glycols” (Saudi Basic Industries Corporation, priority 2004, dated 2006).

conditions: value may be measured experimentally, taken from references or estimated

| SMILES | pKa |
| --- | --- |
| NCCN [Example 1, Ethylenediamine (EDA)] | 9.95 |
| CN(C)CCN(C)C [Example 12, Tetramethylethylenediamine (TMEDA)] | 10.72 |
| C1CN2CCN1CC2 [Example 5, 1,4-diazabicyclo[2,2,2]octane (DABCO)] | 8.82 |
| C1CCCNCC1 [Example 3, Hexamethyleneimine] | 10 |
| NC(=O)NC12CC3CC(CC(C3)C1)C2 [Comparative 3, N-(1-adamantyl)urea, reference compound] | 0.18 |
| CN(C)c1ccccc1 [Comparative 1, Dimethylaniline, reference compound] | 5.07 |
